# Data as given in ChEMBL document CHEMBL4706583, “2-Anilinoquinoline based arylamides as broad spectrum anticancer agents with B-RAF/C-RAF kinase inhibitory effects: Design, synthesis, in vitro cell-based and oncogenic kinase assessments” (Eur J Med Chem, 2020).
# Experiments:
# CCRF-CEM = test: Growth inhibition of human CCRF-CEM cells measured after 48 hrs by SRB assay; type: functional
# COLO 205 = test: Growth inhibition of human COLO 205 cells measured after 48 hrs by SRB assay; type: functional
# HT-29 = test: Growth inhibition of human HT-29 cells measured after 48 hrs by SRB assay; type: functional; conditions: for CC50: read-out: LC50 (the source's name)
# Malme-3M = test: Growth inhibition of human Malme-3M cells measured after 48 hrs by SRB assay; type: functional
# M14 = test: Growth inhibition of human M14 cells measured after 48 hrs by SRB assay; type: functional; conditions: for CC50: read-out: LC50 (the source's name)
# SK-MEL-5 = test: Growth inhibition of human SK-MEL-5 cells measured after 48 hrs by SRB assay; type: functional
# UACC-62 = test: Growth inhibition of human UACC-62 cells measured after 48 hrs by SRB assay; type: functional
# IGROV-1 = test: Growth inhibition of human IGROV-1 cells measured after 48 hrs by SRB assay; type: functional
# OVCAR-5 = test: Growth inhibition of human OVCAR-5 cells measured after 48 hrs by SRB assay; type: functional
# 786-0 = test: Growth inhibition of human 786-0 cells measured after 48 hrs by SRB assay; type: functional
# PC-3 = test: Growth inhibition of human PC-3 cells measured after 48 hrs by SRB assay; type: functional
# HCT-116 [1] = test: Cell cycle arrest in human HCT-116 cells assessed as accumulation at sub-G1 phase at 2.5 uM measured after 48 hrs by propidium iodide staining based flow cytometry (reference value: 17%); type: functional
# HCT-116 [2] = test: Cell cycle arrest in human HCT-116 cells assessed as accumulation at sub-G1 phase at 5 uM measured after 48 hrs by propidium iodide staining based flow cytometry (reference value: 17%); type: functional
# HCT-116 [3] = test: Cell cycle arrest in human HCT-116 cells assessed as accumulation at G1/G0 phase at 1.25 uM measured after 48 hrs by propidium iodide staining based flow cytometry (reference value: 52.2%); type: functional
# HCT-116 [4] = test: Cell cycle arrest in human HCT-116 cells assessed as accumulation at G1/G0 phase at 2.5 uM measured after 48 hrs by propidium iodide staining based flow cytometry (reference value: 52.2%); type: functional
# HCT-116 [5] = test: Cell cycle arrest in human HCT-116 cells assessed as accumulation at S phase at 1.25 uM measured after 48 hrs by propidium iodide staining based flow cytometry (reference value: 10.4%); type: functional
# HCT-116 [6] = test: Cell cycle arrest in human HCT-116 cells assessed as accumulation at S phase at 2.5 uM measured after 48 hrs by propidium iodide staining based flow cytometry (reference value: 10.4%); type: functional
# HCT-116 [7] = test: Cell cycle arrest in human HCT-116 cells assessed as accumulation at G2/M phase at 1.25 uM measured after 48 hrs by propidium iodide staining based flow cytometry (reference value: 20.4%); type: functional
# HCT-116 [8] = test: Cell cycle arrest in human HCT-116 cells assessed as accumulation at G2/M phase at 2.5 uM measured after 48 hrs by propidium iodide staining based flow cytometry (reference value: 20.4%); type: functional
# HCT-116 [9] = test: Cell cycle arrest in human HCT-116 cells assessed as accumulation at G2/M phase at 5 uM measured after 48 hrs by propidium iodide staining based flow cytometry (reference value: 20.4%); type: functional
# HCT-116 [10] = test: Induction of apoptosis in human HCT-116 cells assessed as viable cells at 1.25 uM measured after 24 hrs by Annexin-V Alexa Fluor488/propidium iodide staining based flow cytometry (reference value: 88.1%); type: functional; conditions: read-out: Activity
# HCT-116 [11] = test: Induction of apoptosis in human HCT-116 cells assessed as necrotic cells at 2.5 uM measured after 24 hrs by Annexin-V Alexa Fluor488/propidium iodide staining based flow cytometry (reference value: 4.6%); type: functional
# HCT-116 [12] = test: Induction of apoptosis in human HCT-116 cells assessed as viable cells at 5 uM measured after 24 hrs by Annexin-V Alexa Fluor488/propidium iodide staining based flow cytometry (reference value: 88.1%); type: functional; conditions: read-out: Activity
# HCT-116 [13] = test: Induction of apoptosis in human HCT-116 cells assessed as early apoptotic cells at 1.25 uM measured after 48 hrs by Annexin-V Alexa Fluor488/propidium iodide staining based flow cytometry (reference value: 7.7%); type: functional
# HCT-116 [14] = test: Induction of apoptosis in human HCT-116 cells assessed as necrotic cells at 5 uM measured after 48 hrs by Annexin-V Alexa Fluor488/propidium iodide staining based flow cytometry (reference value: 7.7%); type: functional
# [15] = target: Serine/threonine-protein kinase B-raf (Homo sapiens, UniProt P15056); test: Inhibition of human BRAF at 10 uM using MEK1 (K97R) as substrate in presence of [gamma-33P]ATP by scintillation counting method relative to control
# Sequence of Serine/threonine-protein kinase B-raf (P15056 whole entry): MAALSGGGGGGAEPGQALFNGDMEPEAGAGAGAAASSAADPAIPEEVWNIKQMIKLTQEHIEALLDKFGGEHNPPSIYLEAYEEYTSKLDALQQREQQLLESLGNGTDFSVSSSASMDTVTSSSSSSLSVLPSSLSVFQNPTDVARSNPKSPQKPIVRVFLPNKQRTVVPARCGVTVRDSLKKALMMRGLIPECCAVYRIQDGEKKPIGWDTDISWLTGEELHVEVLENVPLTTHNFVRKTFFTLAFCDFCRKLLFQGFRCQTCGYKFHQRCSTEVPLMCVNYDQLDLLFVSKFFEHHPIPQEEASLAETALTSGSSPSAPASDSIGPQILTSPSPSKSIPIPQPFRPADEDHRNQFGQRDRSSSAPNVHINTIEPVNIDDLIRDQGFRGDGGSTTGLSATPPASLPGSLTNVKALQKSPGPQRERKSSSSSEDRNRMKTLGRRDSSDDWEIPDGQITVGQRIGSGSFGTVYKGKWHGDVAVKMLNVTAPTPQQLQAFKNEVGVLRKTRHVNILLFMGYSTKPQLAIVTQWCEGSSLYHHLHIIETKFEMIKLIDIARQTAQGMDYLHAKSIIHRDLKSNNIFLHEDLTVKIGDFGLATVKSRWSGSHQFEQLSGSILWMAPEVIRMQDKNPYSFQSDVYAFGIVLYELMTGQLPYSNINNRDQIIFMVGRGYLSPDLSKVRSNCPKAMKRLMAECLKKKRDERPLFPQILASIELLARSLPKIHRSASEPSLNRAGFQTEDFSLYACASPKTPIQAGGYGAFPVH
# [16] = target: High affinity nerve growth factor receptor (Homo sapiens, UniProt P04629); test: Inhibition of human TRKA at 10 uM using poly[Glu:Tyr] (4:1) as substrate in presence of [gamma-33P]ATP by scintillation counting method relative to control
# Sequence of High affinity nerve growth factor receptor (P04629 33-796 limits assumed): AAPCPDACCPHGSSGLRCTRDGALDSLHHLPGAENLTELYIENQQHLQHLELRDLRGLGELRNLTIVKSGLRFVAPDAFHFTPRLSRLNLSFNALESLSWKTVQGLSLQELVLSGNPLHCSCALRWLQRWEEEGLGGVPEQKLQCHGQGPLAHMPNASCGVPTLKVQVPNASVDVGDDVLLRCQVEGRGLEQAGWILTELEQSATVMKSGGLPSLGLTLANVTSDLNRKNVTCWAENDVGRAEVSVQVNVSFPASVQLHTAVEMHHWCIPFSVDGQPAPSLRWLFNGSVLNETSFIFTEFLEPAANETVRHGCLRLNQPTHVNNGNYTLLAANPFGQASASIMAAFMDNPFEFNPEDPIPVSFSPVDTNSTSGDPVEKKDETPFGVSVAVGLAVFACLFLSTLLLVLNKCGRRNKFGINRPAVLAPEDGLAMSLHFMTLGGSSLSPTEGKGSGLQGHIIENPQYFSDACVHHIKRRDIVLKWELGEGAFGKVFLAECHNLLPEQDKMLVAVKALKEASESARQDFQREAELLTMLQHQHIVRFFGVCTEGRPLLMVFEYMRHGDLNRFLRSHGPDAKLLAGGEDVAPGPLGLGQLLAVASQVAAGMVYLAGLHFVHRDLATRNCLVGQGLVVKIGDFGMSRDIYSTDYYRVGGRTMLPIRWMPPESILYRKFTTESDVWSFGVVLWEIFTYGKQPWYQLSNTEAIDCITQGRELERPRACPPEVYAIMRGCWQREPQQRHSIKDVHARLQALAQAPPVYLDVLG
# HCT-116 [17] = test: Cell cycle arrest in human HCT-116 cells assessed as accumulation at sub-G1 phase at 1.25 uM measured after 24 hrs by propidium iodide staining based flow cytometry (reference value: 8.7%); type: functional
# HCT-116 [18] = test: Cell cycle arrest in human HCT-116 cells assessed as accumulation at sub-G1 phase at 2.5 uM measured after 24 hrs by propidium iodide staining based flow cytometry (reference value: 8.7%); type: functional
# HCT-116 [19] = test: Cell cycle arrest in human HCT-116 cells assessed as accumulation at G1/G0 phase at 5 uM measured after 24 hrs by propidium iodide staining based flow cytometry (reference value: 65%); type: functional
# HCT-116 [20] = test: Cell cycle arrest in human HCT-116 cells assessed as accumulation at S phase at 1.25 uM measured after 24 hrs by propidium iodide staining based flow cytometry (reference value: 7.2%); type: functional
# HCT-116 [21] = test: Cell cycle arrest in human HCT-116 cells assessed as accumulation at S phase at 2.5 uM measured after 24 hrs by propidium iodide staining based flow cytometry (reference value: 7.2%); type: functional
# HCT-116 [22] = test: Cell cycle arrest in human HCT-116 cells assessed as accumulation at S phase at 5 uM measured after 24 hrs by propidium iodide staining based flow cytometry (reference value: 7.2%); type: functional
# HCT-116 [23] = test: Cell cycle arrest in human HCT-116 cells assessed as accumulation at G2/M phase at 1.25 uM measured after 24 hrs by propidium iodide staining based flow cytometry (reference value: 19.2%); type: functional
# HCT-116 [24] = test: Cell cycle arrest in human HCT-116 cells assessed as accumulation at G2/M phase at 2.5 uM measured after 24 hrs by propidium iodide staining based flow cytometry (reference value: 19.2%); type: functional
# HCT-116 [25] = test: Cell cycle arrest in human HCT-116 cells assessed as accumulation at G2/M phase at 5 uM measured after 24 hrs by propidium iodide staining based flow cytometry (reference value: 19.2%); type: functional
Compound,GI50 (CCRF-CEM) [nM],LC50 (CCRF-CEM) [nM],TGI (CCRF-CEM) [nM],GI50 (COLO 205) [nM],GI50 (HT-29) [nM],TGI (HT-29) [nM],CC50 (HT-29) [nM],GI50 (Malme-3M) [nM],LC50 (concentration killing 50% of cells) (Malme-3M) [nM],TGI (Malme-3M) [nM],GI50 (M14) [nM],TGI (M14) [nM],CC50 (M14) [nM],GI50 (SK-MEL-5) [nM],GI50 (UACC-62) [nM],GI50 (IGROV-1) [nM],LC50 (IGROV-1) [nM],TGI (IGROV-1) [nM],GI50 (OVCAR-5) [nM],GI50 (786-0) [nM],other results
CCN1CCN(c2cc(C(=O)Nc3cccc(Nc4ccc5c(OC)cccc5n4)c3)cc(C(F)(F)F)c2)CC1,758,8040,2060,654,572,1210,2560,611,2880,1330,668,1650,5860,1550,1500,924,20000,5230,2780,3730,GI50 (PC-3): 805 nM; Activity (HCT-116 [1]): 20.9%; Activity (HCT-116 [2]): 14.1%; Activity (HCT-116 [3]): 54.7%; Activity (HCT-116 [4]): 57.1%; Activity (HCT-116 [5]): 8.8%; Activity (HCT-116 [6]): 9.2%; Activity (HCT-116 [7]): 15.5%; Activity (HCT-116 [8]): 12.9%; Activity (HCT-116 [9]): 14.4%; viability at 1.25 µM (HCT-116 [10]): 86.5%; Activity (HCT-116 [11]): 0.6%; viability at 5 µM (HCT-116 [12]): 79.2%; Activity (HCT-116 [13]): 16.6%; Activity (HCT-116 [14]): 0.5%; inhibition [15]: 94.4%; inhibition [16]: 88%
COc1cccc2nc(Nc3cccc(NC(=O)c4ccc(N5CCN(C)CC5)c(C(F)(F)F)c4)c3)ccc12,1400,> 50000,> 50000,909,712,1610,3650,816,3200,1620,899,1950,4210,1520,1060,1250,25600,4240,1530,923,GI50 (PC-3): 1260 nM; Activity (HCT-116 [17]): 9.6%; Activity (HCT-116 [18]): 7.9%; Activity (HCT-116 [19]): 71%; Activity (HCT-116 [20]): 8.2%; Activity (HCT-116 [21]): 7.3%; Activity (HCT-116 [22]): 6.3%; Activity (HCT-116 [23]): 15.6%; Activity (HCT-116 [24]): 15.1%; Activity (HCT-116 [25]): 13.7%; viability at 1.25 µM (HCT-116 [10]): 82.7%; Activity (HCT-116 [11]): 8.6%; viability at 5 µM (HCT-116 [12]): 85.1%; Activity (HCT-116 [13]): 14%; Activity (HCT-116 [14]): 3.5%
